{"source": "patent US8729009B2", "about": "“Lysine compounds and their use in site- and chemoselective modification of peptides and proteins” (Stichting Het Nederlands Kanker Instituut, priority 2009, dated 2014)", "test": "Solubility of the thiolysine-modified peptides in the ligation buffer", "format": "physicochemical", "conditions": "Tris-HCl pH 7.5 buffer used during the ligation reaction", "source_text": "This is not surprising as this peptide is made up for ≈50% of hydrophobic amino acids and contains 3 beta-strands in the native PCNA protein (see Supporting Information). Besides performing the ubiquitin ligations with an excess of peptide (rxn 1-3 and 6-16, FIGS. 6 and 7), it was also observed that the use of (roughly) equimolar amounts of ubiquitin and peptide (rxn 4, 5 FIG. 6 and FIGS. 8-10) allowed ligation. In order to be able to develop the here presented ligation methodology for solid phase peptide synthesis, with the peptide being anchored to the solid support, it is important to fully consume all peptide. In order to confirm that a polar organic solvent is compatible with the reaction conditions, we repeated the ubiquitin ligation of the H2B peptide TKAVTK*YTSSK, using a DMSO stock of the peptide, up to a final concentration of 10% DMSO (rxn 14-16, FIG. 7).", "data": [{"substance": "GDAWISC*AK*DGVKFSASGELGNGNIKLSQ [Peptide 1]", "values": [{"measurement": "solubility", "value": "only soluble in polar organic solvents such as DMF and DMSO"}]}]}
